The values that follow come from patent US5591741A, “Fungicidal spiroheterocyclic derivatives” (American Cyanamid Company, priority 1993, dated 1997).

For one assay, the system named is Alternaria solani. Kind of assay: Activity against tomato early blight (AS). In kind it is in vivo. Conditions: Table VI; tomato seedlings, contact prophylactic foliar spray, 4 days. As to the method: b) Activity against tomato early blight (Alternaria solani; AS) This test measures the contact prophylactic activity of test compounds applied as a foliar spray. Tomato seedlings (cv Outdoor Girl) are grown to the stage at which the second true leaf is expanded. The plants are treated using an automated sprayline as described under (a). Test compounds are applied as solutions or suspensions in a mixture of acetone and water (50:50 v/v) containing 0.04% surfactant ("TWEEN 20"--Trade Mark). After drying the plants are kept for 24 hours in a glasshouse at 20° C. and 40% R.H., followed by inoculation of the leaf upper surfaces with a suspension of A. solani conidia containing 10^4 spores/ml. For 4 days after inoculation plants are kept moist in a humidity compartment at 21° C. Disease is assessed 4 days after inoculation, based on the percentage of leaf surface area covered by lesions when compared with control plants. The extent of disease control in all the above tests is expressed as a rating compared with either an untreated control or a diluent-sprayed-control, according to the criteria: […]

In assay [1] the test system is Pseudocercosporella herpotrichoides. The assay is described as follows: Activity against wheat eyespot in-vitro (PHI). The settings on record: 10 ppm, 10 days, 20° C., mycelial growth. It counts as cell-based. As to the method: (h) Activity against wheat eyespot in-vitro (Pseudocercosporella herpotrichoides; pHI) This test measures the in vitro activity of compounds against the fungus causing wheat eyespot. The test compound is dissolved or suspended in acetone and is added into 4 ml aliquots of half strength Potato Dextrose Broth (PDB) dispended in 25-compartment petri dishes to give a final concentration of 10ppm. The fungal inoculum consists of mycelial fragments of P. herpotrichoides grown in half strength PDB in shaken flasks and added to the broth to provide 5×10^4 fragments/ml broth. Petri dishes are incubated at 20° C. for 10 days until the assessment of mycelial growth. The extent of disease control in all the above tests is expressed as a rating compared with either an untreated control or a diluent-sprayed-control, according to the criteria: […]

For another assay, the system named is Venturia inaequalis. The assay is described as follows: Activity against apple scab in-vitro (VII). In kind it is cell-based. Conditions: 10 ppm, 10 days, 20° C., mycelial growth. As to the method:
(j) Activity against apple scab in-vitro (Venturia inaequalis: VII) This test measures the in-vitro activity of compounds against V. inaequalis that causes apple scab. The test compound in acetone is added into 4 ml aliquots of half strength Potato Dextrose Broth dispensed in 25-compartment petri dishes to give final concentrations of 10 ppm. The fungal inoculum consists of mycelial fragments and spores of V. inaequalis grown on malt agar and added to the broth to provide 5×10^4 propagules/ml broth. Petri dishes are incubated at 20° C. for 10 days until the assessment of mycelial growth. The extent of disease control in all the above tests is expressed as a rating compared with either an untreated control or a diluent-sprayed-control, according to the criteria: […]

The test system of another assay is Plasmopara viticola. The assay is described as follows: Antisporulant activity against vine downy mildew (PVA). In kind it is in vivo. Conditions: vine leaves, antisporulant foliar spray, 600 ppm, 750 l/ha. As to the method:
(a) Antisporulant activity against vine downy mildew (Plasmopara viticola; PVA) The test is a direct antisporulant one using a foliar spray. The lower surfaces of leaves of whole vine plants (cv Cabernet Sauvignon), approximately 8 cm high, are inoculated by spraying with an aqueous suspension containing 5×10^4 zoosporangia/ml. The inoculated plants are kept for 24 hours at 21° C. in a high humidity compartment, then 24 hours at glasshouse ambient temperature and humidity. Infected leaves are sprayed on their lower surfaces with a solution of active material in 1:1 water/acetone containing 0.04% "TWEEN 20" (Trade Mark; a polyoxyethylene sorbitan ester surfactant). Plants are treated using an automated sprayline with an atomising nozzle. The concentration of the compound is 600 ppm, and the spray volume is 750 l/ha. After spraying, the plants are returned to normal glasshouse conditions for 96 hours and are then transferred to the high humidity compartment for 24 hours to induce sporulation. Assessment is based on the percentage of the leaf area covered by sporulation compared with that on control leaves. The extent of disease control in all the above tests is expressed as a rating compared with either an untreated control or a diluent-sprayed-control, according to the criteria: […]

Assay [2] deals with Erysiphe graminis f.sp. hordei. Kind of assay: Activity against barley powdery mildew, direct therapeutic (EGT). In kind it is in vivo. The settings on record: direct therapeutic foliar spray, 600 ppm, up to 7 days. As to the method:
(e) Activity against barley powdery mildew (Erysiphe graminis f.sp. hordei; EGT) The test is a direct therapeutic foliar spray. Leaves of barley seedlings, (cv. Golden Promise) at the single leaf stage are inoculated by dusting with mildew conidia one day prior to treatment with the test compound. The inoculated plants are kept overnight at glasshouse ambient temperature (18° C.) and humidity (40%) prior to treatment. The plants are sprayed with the test compound at a dosage of 600 ppm using an automated sprayline as described under (a). After drying, plants are returned to a compartment at 18° C. and 40% humidity for up to 7 days. Assessment is based on the percentage of leaf area covered by sporulation compared with that on leaves of control plants. The extent of disease control in all the above tests is expressed as a rating compared with either an untreated control or a diluent-sprayed-control, according to the criteria: […]

Assay [3] relates to Erysiphe graminis f.sp. hordei. Kind of assay: Direct protectant activity against barley powdery mildew (EGP). In kind it is in vivo. The settings on record: direct protectant foliar spray, 8 days. On the procedure:
(f) Direct protectant activity against barley powdery mildew (Erysiphe graminis f.sp. hordei; EGP) The test is a direct protectant foliar spray. Leaves of barley seedlings (cv Golden Promise) at the single leaf stage are sprayed with the test compound as described under (a). After drying, the plants are kept for 24 hours in a glasshouse at 18° C. and 40% R.H. Then the plants are inoculated by dusting with mildew conidia and kept at 18° C. and 40% R.H. for 8 days. Assessment is based on the percentage of leaf area covered by sporulation compared with that on leaves of control plants. The extent of disease control in all the above tests is expressed as a rating compared with either an untreated control or a diluent-sprayed-control, according to the criteria: […]

A further assay relates to Phytophthora infestans. In kind it is in vivo. Conditions: tomato, direct protectant foliar spray.
Another assay deals with Pyricularia oryzae. It counts as in vivo. The settings on record: rice seedlings, direct therapeutic foliar spray, 600 ppm, 4-5 days.
Another assay deals with Rhizoctonia solani. Kind of assay: Activity against Rhizoctonia in-vitro (RSI). It counts as cell-based. The settings on record: 10 ppm, 10 days, 20° C., mycelial growth. On the procedure: (i) Activity against Rhizoctonia in-vitro (Rhizoctonia solani: RSI) This test measures the in-vitro activity of compounds against R. solani that causes stem and root rots. The test compound in acetone is added into 4 ml aliquots of half strength Potato Dextrose Broth dispensed in 25-compartment petri dishes to give final concentrations of 10 ppm. The fungal inoculum consists of mycelial fragments of R. solani growth in half strength PDB in shaken culture flasks and added to the broth to provide 5×10^4 fragments/ml broth. Petri dishes are incubated at 20° C. for 10 days until the assessment of mycelial growth. The extent of disease control in all the above tests is expressed as a rating compared with either an untreated control or a diluent-sprayed-control, according to the criteria: […]

For a further assay, the system named is Botrytis cinerea. Kind of assay: Direct protectant activity against broad bean grey mould (BCB). In kind it is in vivo. The settings on record: direct protectant foliar spray, 600 ppm, 4 days. As to the method: (c) Direct protectant activity against broad bean grey mould (Botrytis cinerea; BCB) The test is a direct protectant foliar spray. The upper surfaces of leaves of broad bean plants with two leaf pairs (cv The Sutton) are sprayed with the test compound at a dosage of 600 ppm using an automated sprayline as described under (a). 24 hours after spraying the leaves are inoculated with an aqueous suspension containing 10^6 conidia/ml. For 4 days after inoculation plants are kept in a high humidity compartment at 22° C. Disease is assessed 4 days after inoculation, based on the percentage of leaf surface area covered by lesions. The extent of disease control in all the above tests is expressed as a rating compared with either an untreated control or a diluent-sprayed-control, according to the criteria: […]

The subject of a further assay is Leptosphaeria nodorum. The assay is described as follows: Activity against wheat leafspot (LN). In kind it is in vivo. The settings on record: direct therapeutic foliar spray, 600 ppm, 6-8 days. As to the method: (d) Activity against wheat leafspot (Leptosphaeria nodorum; LN.) The test is a direct therapeutic foliar spray. Leaves of wheat plants (cv Norman), at the single leaf stage, are inoculated by spraying with an aqueous suspension containing 1.5×10^6 conidia/ml. The inoculated plants are kept for 24 hours in a high humidity compartment prior to treatment. The plants are sprayed with a solution of the test compound at a dosage of 600 ppm using an automated sprayline as described under (a). After drying, the plants are kept for 6-8 days at 22° C. and moderate humidity (70%). Assessment is based on the density of lesions per leaf compared with that on leaves of control plants. The extent of disease control in all the above tests is expressed as a rating compared with either an untreated control or a diluent-sprayed-control, according to the criteria: […]

With `CC(C)(C)C1CCC2(CC1)CC(O)(CNC1CCCCC1)CO2` (single isomer, unassigned) [Compound 213, 8-t-Butyl-3-cyclohexylaminomethyl-3-hydroxy-1-oxaspiro-(4,5)decane], the “disease control rating AS” value in the assay on Alternaria solani was 2 (greater than 80% disease control). Moreover, the “disease control rating PHI” value in assay [1] is 0 (less than 50% disease control). Also, in the assay with Venturia inaequalis, the “disease control rating VII” value is 0 (less than 50% disease control). In addition, the “disease control rating PVA” value with Plasmopara viticola is reported as 0 (less than 50% disease control). The “disease control rating EGT” value in assay [2] is reported as 2 (greater than 80% disease control). For the same molecule, in [3], the “disease control rating EGP” value is 2 (greater than 80% disease control). Besides, the “disease control rating PIP” value in the assay on Phytophthora infestans is recorded as 2 (greater than 80% disease control). Further, the “disease control rating PO” value in the assay with Pyricularia oryzae is 1 (about 50-80% disease control). Moreover, the “disease control rating RSI” value in the assay with Rhizoctonia solani is 0 (less than 50% disease control). Also, the “disease control rating BCB” value with Botrytis cinerea is recorded as 2 (greater than 80% disease control). The “disease control rating LN” value in the assay with Leptosphaeria nodorum was 0 (less than 50% disease control).
For the molecule `CC(C)(C)C1CCC2(CC1)CC(N1CCC(c3ccccc3)CC1)CO2` (centres unmarked) [Compound 4], the “disease control rating AS” value in the assay with Alternaria solani is given as 0 (less than 50% disease control). The “disease control rating PHI” value in [1] is 1 (about 50-80% disease control). The “disease control rating VII” value in the assay on Venturia inaequalis is 1 (about 50-80% disease control). Moreover, in the assay with Plasmopara viticola, the “disease control rating PVA” value was 0 (less than 50% disease control). Also, the “disease control rating EGT” value in [2] was 2 (greater than 80% disease control). Besides, the “disease control rating EGP” value in assay [3] is 2 (greater than 80% disease control). Further, in the assay on Phytophthora infestans, the “disease control rating PIP” value is on record as 0 (less than 50% disease control). Further, the “disease control rating PO” value in the assay with Pyricularia oryzae was 0 (less than 50% disease control). For the same molecule, in the assay with Rhizoctonia solani, the “disease control rating RSI” value was 0 (less than 50% disease control). In addition, the “disease control rating BCB” value in the assay on Botrytis cinerea is reported as 0 (less than 50% disease control). The “disease control rating LN” value with Leptosphaeria nodorum was 1 (about 50-80% disease control).
Consider `CCCCCCCNC1COC2(CCC(C(C)(C)C)CC2)C1` (centres unmarked) [Compound 5], for which, in the assay on Alternaria solani, the “disease control rating AS” value is listed as 0 (less than 50% disease control). For the same molecule, the “disease control rating PHI” value in [1] was 0 (less than 50% disease control). For the same molecule, in the assay on Venturia inaequalis, the “disease control rating VII” value is 0 (less than 50% disease control). Moreover, the “disease control rating PVA” value in the assay with Plasmopara viticola is listed as 0 (less than 50% disease control). In addition, the “disease control rating EGT” value in assay [2] was 2 (greater than 80% disease control). The “disease control rating EGP” value in [3] was 2 (greater than 80% disease control). The “disease control rating PIP” value in the assay on Phytophthora infestans is given as 0 (less than 50% disease control). Moreover, the “disease control rating PO” value in the assay on Pyricularia oryzae is 0 (less than 50% disease control). For the same molecule, the “disease control rating RSI” value in the assay on Rhizoctonia solani is given as 1 (about 50-80% disease control). Further, the “disease control rating BCB” value with Botrytis cinerea is given as 1 (about 50-80% disease control). Also, the “disease control rating LN” value in the assay with Leptosphaeria nodorum is 0 (less than 50% disease control).
On to `CC(C)(C)C1CCC2(CC1)CC(N1CCC3CCCCC3C1)CO2` (centres unmarked) [Compound 6], for which the “disease control rating AS” value with Alternaria solani is 0 (less than 50% disease control). In addition, the “disease control rating PHI” value in assay [1] is given as 0 (less than 50% disease control). Besides, the “disease control rating VII” value in the assay on Venturia inaequalis is 1 (about 50-80% disease control). Also, the “disease control rating PVA” value in the assay on Plasmopara viticola is on record as 0 (less than 50% disease control). Further, in [2], the “disease control rating EGT” value is 2 (greater than 80% disease control). The “disease control rating EGP” value in assay [3] was 2 (greater than 80% disease control). Further, the “disease control rating PIP” value in the assay on Phytophthora infestans is given as 0 (less than 50% disease control). For the same molecule, in the assay with Pyricularia oryzae, the “disease control rating PO” value is 0 (less than 50% disease control). In the assay on Rhizoctonia solani, the “disease control rating RSI” value is 1 (about 50-80% disease control). For the same molecule, the “disease control rating BCB” value in the assay on Botrytis cinerea is given as 1 (about 50-80% disease control). Moreover, the “disease control rating LN” value in the assay with Leptosphaeria nodorum is 0 (less than 50% disease control).
